Results as given in patent publication US5451520A, “Creatine amidinohydrolase from alkaligenes sp. ks-85 ferm bp-4487” (Kikkoman Corporation, priority 1993, dated 1995).

Tests used:
[1] = tested on: creatine amidinohydrolase from Alkaligenes sp. KS-85 (FERM BP-4487), the present enzyme; test: Km determination by Lineweaver-Burk plot, creatine substrate; type: biochemical; settings: pH 7.7, 37° C.
Procedure: The enzyme activity forming […] yellow pigment in 1 minute under the following conditions is referred to as 1 U of the present enzyme.
6.63 g of creatine is dissolved in 500 ml of 50 mM buffer, pH 7.7.
1) 0.9 ml of the solution 1 is pre-incubated at 37° C. for 5 min.
2) 0.1 ml of an enzyme solution (adjusted in the range of approx. 1-2 U/ml) is mixed therewith and allowed to react at 37° C. for 10 min.
3) After 10 min. reaction, 2 ml of the solution 2 is mixed therewith.
4) After being mixed with the solution 2, the mixture is allowed to stand at 25° C. for 20 min., and the absorbance at 435 nm is determined (the OD sample).

[2] = target: T1, conventional creatine amidinohydrolase (CRH-211, a product of Toyobo Co., Ltd.) (Pseudomonas putida, UniProt P38488); settings: conventional enzyme; substrate creatine; cited from earlier work
T1 construct: purchased Toyobo Co., Ltd. CRH-211
T1 sequence (P38488 1-403): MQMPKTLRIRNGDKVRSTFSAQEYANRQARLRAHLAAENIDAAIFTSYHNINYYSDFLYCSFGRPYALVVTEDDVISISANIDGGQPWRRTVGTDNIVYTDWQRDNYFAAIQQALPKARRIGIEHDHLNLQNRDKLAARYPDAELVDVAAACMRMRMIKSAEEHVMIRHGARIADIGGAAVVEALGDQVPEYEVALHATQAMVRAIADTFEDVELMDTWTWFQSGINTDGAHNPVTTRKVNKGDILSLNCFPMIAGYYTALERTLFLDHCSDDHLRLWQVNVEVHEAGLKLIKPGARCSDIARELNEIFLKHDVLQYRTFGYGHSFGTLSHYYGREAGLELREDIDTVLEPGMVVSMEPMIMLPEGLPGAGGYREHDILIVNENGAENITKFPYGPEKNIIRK

## CN(CC(=O)O)C(=N)N [creatine]
[1]
  Km: 13 mM
[2]
  Km: 24 mM
